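Method: 48-hour compound exposure of cells in 96-well plates, five concentrations, linear interpolation of endpoints. Definition used: TGI = concentration required for complete inhibition of growth.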
Experiments:
Assay in all cases: NCI tumour cell line growth inhibition, 48 h
M19-MEL melanoma = tested on: M19-MEL melanoma
KM20L2 colon = tested on: KM20L2 colon
XF 498 CNS = tested on: XF 498 CNS
HOP-18 NSCLC = tested on: HOP-18 NSCLC
DMS 273 small cell lung = tested on: DMS 273 small cell lung
P388 leukemia = tested on: P388 leukemia
SN12K1 renal = tested on: SN12K1 renal
SNB-78 CNS = tested on: SNB-78 CNS
LXFL 529 NSCLC = tested on: LXFL 529 NSCLC
P388/ADR leukemia = tested on: P388/ADR leukemia
RXF-631 renal = tested on: RXF-631 renal

Row | SMILES | TGI (M19-MEL melanoma) [µM] | TGI (KM20L2 colon) [µM] | TGI (XF 498 CNS) [µM] | TGI (HOP-18 NSCLC) [µM] | TGI (DMS 273 small cell lung) [µM] | TGI (P388 leukemia) [µM] | TGI (SN12K1 renal) [µM] | TGI (SNB-78 CNS) [µM] | TGI (LXFL 529 NSCLC) [µM] | TGI (P388/ADR leukemia) [µM] | TGI (RXF-631 renal) [µM]
1 | CCOC(=O)c1ccc(C)c(N=NN(C)C)c1 | > 100 | > 100 | > 100 | > 100 | > 100 |  |  |  |  |  | 
2 | Nc1ccn(C2OC(CO)C(O)C2O)c(=O)c1 (centres undefined) |  | > 625 | < 0.0625 | > 625 | > 625 | > 625 | > 625 | > 625 |  |  | 
3 | Cc1ccc(S(=O)(=O)C(C#N)c2nc3ccccc3nc2-n2ccnc2)cc1 (centres undefined) | > 100 |  | > 100 | > 100 | > 100 |  |  | > 100 | > 100 |  | 
4 | COc1ccc(C2COc3cc(O)c(O)cc3C2)cc1 (centres undefined) | 86.6 | 221 |  | 110 | 160 | 18.7 | 98.9 | 268 |  | 8.53 | 
5 | CC(=O)[C@@]1(O)CC[C@H]2[C@@H]3C[C@H](C)C4=CC(=O)C=C[C@]4(C)[C@@]3(F)[C@@H](O)C[C@@]21C | > 100 | > 100 | > 100 |  | > 100 |  |  | > 100 | > 100 |  | > 100
6 | O=C1NC2OC(C(O)CO)C(O)C2O1 (centres undefined) | > 100 | > 100 | > 100 | > 100 | > 100 |  |  |  | > 100 |  | 
7 | O=C(CN(c1ccccc1)c1ccccc1)n1nnc2ccccc21 | 48.6 | > 100 |  |  | > 100 |  |  | > 100 | > 100 |  | 
8 | OCc1ccc(C2CC(c3ccco3)=NN2c2ccccc2)o1 (centres undefined) | > 100 | > 100 | > 100 |  | > 100 |  |  | > 100 | > 100 |  | 
9 | COc1cc2c3c(c1OC)C1(C=CC(=O)C=C1)C[C@H]3N(C)CC2 | > 100 | > 100 | > 100 | > 100 | > 100 |  |  | > 100 | > 100 |  | > 100
10 | COc1c(C(C)C)cc2c3c1OC(=O)[C@@]31CCCC(C)(C)C1CC2 (some centres undefined) | 80.8 | > 100 |  |  | > 100 |  |  | 67.1 | 49.8 |  | 
11 | CSc1sc2ccccc2[s+]1 | > 100 | > 100 |  | > 100 | > 100 |  |  |  | > 100 |  | > 100
